Organism: Rattus norvegicus
Test: DrugMatrix - Regimen: Daily Repeat
Format: toxicity, organism-based, Sprague-Dawley
Parameters: regimen Daily Repeat, gender Male, age 6-8 weeks
Details: in vivo, po, route oral GAVAGE, […]; for ABSOLUTE BASOPHIL / ABSOLUTE EOSINOPHIL / ABSOLUTE LYMPHOCYTE / ABSOLUTE MONOCYTE / ABSOLUTE SEGMENTED NEUTROPHIL / BASOPHIL / EOSINOPHIL / ERYTHROCYTE COUNT / HEMATOCRIT / HEMOGLOBIN / LEUKOCYTE COUNT / LYMPHOCYTE / MEAN CORPUSCULAR HEMOGLOBIN / MEAN CORPUSCULAR HEMOGLOBIN CONCENTRATION / MEAN CORPUSCULAR VOLUME / MONOCYTE / NEUTROPHIL / NUCLEATED RED BLOOD CELLS / PLATELET COUNT: tissue Blood; for ALANINE AMINOTRANSFERASE / ALBUMIN / ALKALINE PHOSPHATASE / ASPARTATE AMINOTRANSFERASE / BLOOD UREA NITROGEN / CARBON DIOXIDE / CHLORIDE / CHOLESTEROL / CREATINE PHOSPHOKINASE / CREATININE / GLUCOSE / LACTATE DEHYDROGENASE / LIPASE / PHOSPHORUS / POTASSIUM / SODIUM / TOTAL BILIRUBIN / TOTAL PROTEIN / URIC ACID: tissue Plasma
[1] = 0 mg/kg, 72 h, dose level Control, time 3 day
[2] = 0 mg/kg, 120 h, dose level Control, time 5 day
[3] = 300 mg/kg, 72 h, dose level High, time 3 day

CC(C)c1c(C(=O)Nc2ccccc2)c(-c2ccccc2)c(-c2ccc(F)cc2)n1CC[C@@H](O)C[C@@H](O)CC(=O)O [ATORVASTATIN]
ABSOLUTE BASOPHIL [1]: 0 CELLS/uL | ABSOLUTE EOSINOPHIL [1]: 14 CELLS/uL | ABSOLUTE LYMPHOCYTE [1]: 11144.67 CELLS/uL | ABSOLUTE MONOCYTE [1]: 22.5 CELLS/uL | ABSOLUTE SEGMENTED NEUTROPHIL [1]: 535.5 CELLS/uL | BASOPHIL [1]: 0% | EOSINOPHIL [1]: 0.17% | ERYTHROCYTE COUNT [1]: 5.08 x10E6/uL | HEMATOCRIT [1]: 32.32% | HEMOGLOBIN [1]: 12.87 G/DL | LEUKOCYTE COUNT [1]: 11.72 x10E3/uL | LYMPHOCYTE [1]: 94.67% | MEAN CORPUSCULAR HEMOGLOBIN [1]: 25.37 pg | MEAN CORPUSCULAR HEMOGLOBIN CONCENTRATION [1]: 39.85 G/DL | MEAN CORPUSCULAR VOLUME [1]: 63.58 fL | MONOCYTE [1]: 0.17% | NEUTROPHIL [1]: 5% | NUCLEATED RED BLOOD CELLS [1]: 0 /100WBC | PLATELET COUNT [1]: 1084 x10E3/uL | ALANINE AMINOTRANSFERASE [1]: 67.5 u/L | ALBUMIN [1]: 4.02 G/DL | ALKALINE PHOSPHATASE [1]: 374.17 u/L | ASPARTATE AMINOTRANSFERASE [1]: 83.5 u/L | BLOOD UREA NITROGEN [1]: 14.5 mg/dL | CARBON DIOXIDE [1]: 30 mmol/L | CHLORIDE [1]: 100.5 MEQ/L | CHOLESTEROL [1]: 71.33 mg/dL | CREATINE PHOSPHOKINASE [1]: 268.33 u/L | CREATININE [1]: 0.16 mg/dL | GLUCOSE [1]: 170.5 mg/dL | LACTATE DEHYDROGENASE [1]: 81.17 u/L | LIPASE [1]: 16.67 u/L | PHOSPHORUS [1]: 10.07 mg/dL | POTASSIUM [1]: 5.03 MEQ/L | SODIUM [1]: 142.92 MEQ/L | TOTAL BILIRUBIN [1]: 0.17 mg/dL | TOTAL PROTEIN [1]: 5.63 G/DL | URIC ACID [1]: 0.5 mg/dL | ABSOLUTE BASOPHIL [2]: 0 CELLS/uL | ABSOLUTE EOSINOPHIL [2]: 37.5 CELLS/uL | ABSOLUTE LYMPHOCYTE [2]: 8049.5 CELLS/uL | ABSOLUTE MONOCYTE [2]: 82.83 CELLS/uL | ABSOLUTE SEGMENTED NEUTROPHIL [2]: 646.83 CELLS/uL | BASOPHIL [2]: 0% | EOSINOPHIL [2]: 0.5% | ERYTHROCYTE COUNT [2]: 5.36 x10E6/uL | HEMATOCRIT [2]: 33.9% | HEMOGLOBIN [2]: 13.02 G/DL | LEUKOCYTE COUNT [2]: 8.82 x10E3/uL | LYMPHOCYTE [2]: 90.17% | MEAN CORPUSCULAR HEMOGLOBIN [2]: 24.32 pg | MEAN CORPUSCULAR HEMOGLOBIN CONCENTRATION [2]: 38.42 G/DL | MEAN CORPUSCULAR VOLUME [2]: 63.32 fL | MONOCYTE [2]: 1.17% | NEUTROPHIL [2]: 8.17% | NUCLEATED RED BLOOD CELLS [2]: 0.17 /100WBC | PLATELET COUNT [2]: 1231.5 x10E3/uL | ALANINE AMINOTRANSFERASE [2]: 62 u/L | ALBUMIN [2]: 3.97 G/DL | ALKALINE PHOSPHATASE [2]: 303.67 u/L | ASPARTATE AMINOTRANSFERASE [2]: 84.5 u/L | BLOOD UREA NITROGEN [2]: 14.83 mg/dL | CARBON DIOXIDE [2]: 31.83 mmol/L | CHLORIDE [2]: 97 MEQ/L | CHOLESTEROL [2]: 68.83 mg/dL | CREATINE PHOSPHOKINASE [2]: 411.33 u/L | CREATININE [2]: 0.16 mg/dL | GLUCOSE [2]: 170.17 mg/dL | LACTATE DEHYDROGENASE [2]: 88.5 u/L | LIPASE [2]: 9.5 u/L | PHOSPHORUS [2]: 9.98 mg/dL | POTASSIUM [2]: 5.72 MEQ/L | SODIUM [2]: 141.62 MEQ/L | TOTAL BILIRUBIN [2]: 0.1 mg/dL | TOTAL PROTEIN [2]: 5.67 G/DL | URIC ACID [2]: 0.52 mg/dL | ABSOLUTE BASOPHIL [3]: 0 CELLS/uL | ABSOLUTE EOSINOPHIL [3]: 88 CELLS/uL | ABSOLUTE LYMPHOCYTE [3]: 7063.33 CELLS/uL | ABSOLUTE MONOCYTE [3]: 150.67 CELLS/uL | ABSOLUTE SEGMENTED NEUTROPHIL [3]: 964.67 CELLS/uL | BASOPHIL [3]: 0% | EOSINOPHIL [3]: 1% | ERYTHROCYTE COUNT [3]: 5.19 x10E6/uL | HEMATOCRIT [3]: 32.23% | HEMOGLOBIN [3]: 12.9 G/DL | LEUKOCYTE COUNT [3]: 8.27 x10E3/uL | LYMPHOCYTE [3]: 86% | MEAN CORPUSCULAR HEMOGLOBIN [3]: 24.93 pg | MEAN CORPUSCULAR HEMOGLOBIN CONCENTRATION [3]: 40.13 G/DL | MEAN CORPUSCULAR VOLUME [3]: 62.1 fL | MONOCYTE [3]: 1.67% | NEUTROPHIL [3]: 11.33% | NUCLEATED RED BLOOD CELLS [3]: 0 /100WBC | PLATELET COUNT [3]: 924.33 x10E3/uL | ALANINE AMINOTRANSFERASE [3]: 226.67 u/L | ALBUMIN [3]: 4.2 G/DL | ALKALINE PHOSPHATASE [3]: 729 u/L | ASPARTATE AMINOTRANSFERASE [3]: 518.67 u/L | BLOOD UREA NITROGEN [3]: 15 mg/dL | CARBON DIOXIDE [3]: 26.33 mmol/L | CHLORIDE [3]: 103 MEQ/L | CHOLESTEROL [3]: 70.67 mg/dL | CREATINE PHOSPHOKINASE [3]: 416.67 u/L | CREATININE [3]: 0.17 mg/dL | GLUCOSE [3]: 160 mg/dL | LACTATE DEHYDROGENASE [3]: 414.67 u/L | LIPASE [3]: 12 u/L | PHOSPHORUS [3]: 10 mg/dL | POTASSIUM [3]: 4.92 MEQ/L | SODIUM [3]: 144.23 MEQ/L | TOTAL BILIRUBIN [3]: 0.37 mg/dL | TOTAL PROTEIN [3]: 5.67 G/DL | URIC ACID [3]: 0.67 mg/dL

Source: ChEMBL document CHEMBL3885881, “DrugMatrix”
